Assay results from patent publication US4348404A, “Antiinflammatory 4,5-diaryl-α-polyfluoroalkyl-1H-imidazole-2-methanamines” (E. I. Du Pont de Nemours and Company, priority 1981, dated 1982).
Read-outs that look alike come from different tables or passages of the source.

Test system: adjuvant-induced arthritis in rats
Experiment: Established Adjuvant-Induced Arthritis in Rats
Type: in vivo, Lewis (Wistar) male rats
Conditions: for ED50: read-out: Adjuvant Arthritis ED50; for percent paw volume reduction at the indicated dose: oral gavage once daily for 7 days
[1] = rat, oral gavage once daily for 7 days (days 14-20), decrease from control paw volume, uninjected left hind paw, day 21, estimated from dose-response regression lines by inspection

Compound | ED50 [1] [mg/kg] | further results
COc1ccc(-c2nc(C(N)(C(F)(F)F)C(F)(F)F)[nH]c2-c2ccc(OC)cc2)cc1 [Example 1, 4,5-Bis(4-methoxyphenyl)-α,α-di(trifluoromethyl)-1H-imidazole-2-methanamine] | 2 | –
NC(c1nc(-c2ccc(F)cc2)c(-c2ccc(F)cc2)[nH]1)C(F)(F)F (stereo not drawn) [Example 2, 4,5-Bis(4-fluorophenyl)-α-trifluoromethyl-1H-imidazole-2-methanamine] | 19 | –
CNC(c1nc(-c2ccc(F)cc2)c(-c2ccc(F)cc2)n1C)(C(F)(F)F)C(F)(F)F [Example 3, 4,5-Bis-(4-fluorophenyl)-N,1-dimethyl-α,α-di(trifluoromethyl)-1H-imidazole-2-methanamine] | – | percent paw volume reduction at the indicated dose (rat, @ 25 mg/kg): -41%
NC(c1nc(-c2ccc(F)cc2)c(-c2ccc(F)cc2)[nH]1)(C(F)(F)F)C(F)(F)F [Example 4, 4,5-bis(4-fluorophenyl)-α,α-di(trifluoromethyl)-1H-imidazole-2-methanamine] | 1.7 | –
COc1ccc(-c2nc(C(N)(C(F)(F)F)C(F)(F)F)n(C)c2-c2ccc(OC)cc2)cc1 [Example 5] | – | percent paw volume reduction at the indicated dose (rat, @ 50 mg/kg): -27%
Cn1c(C(N)(C(F)(F)F)C(F)(F)F)nc(-c2ccc(F)cc2)c1-c1ccc(F)cc1 [Example 6, 4,5-bis(4-fluorophenyl)-1-methyl-α,α-di(trifluoromethyl)-1H-imidazole-2-methanamine] | 3.4 | –
Cc1ccc(-c2nc(C(N)(C(F)(F)F)C(F)(F)F)[nH]c2-c2ccc(C)cc2)cc1 [Example 7] | 5.4 | –
NC(c1nc(-c2ccc(Cl)cc2)c(-c2ccc(Cl)cc2)[nH]1)(C(F)(F)F)C(F)(F)F [Example 8] | – | ED50 (Rattus norvegicus, po): 7 mg/kg
NC(c1nc(-c2ccccc2)c(-c2ccccc2)[nH]1)(C(F)(F)F)C(F)(F)F [Example 9] | 8 | –
